Data as given in PubChem BioAssay AID1199 (EPA DSSTox, 2008).
The source made the active and inactive calls.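 The calls were made as follows: active = a tumour-causing dose and a tumour site recorded for mice in at least one sex group; inconclusive = only government mouse studies exist and were judged inadequate; inactive = mouse studies exist but none gave tumours.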

system: mouse carcinogenicity bioassay, TD50 from CPDB; assay: DSSTox (CPDBAS) Carcinogenic Potency Database Summary Mouse Bioassay Results; details: not given
Summary of the method: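 Values are TD50 carcinogenic potencies from mouse chronic bioassays, taking the most positive result for each sex-species. Sources are published literature and NCI/NTP studies; target sites reflect author-reported positive findings.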

Compound	Potency
CCC1NC(=O)C2C(Cl)C(Cl)CN2C(=O)C(CO)NC(=O)CC(c2ccccc2)NC(=O)C(CO)NC1=O (configuration not stated)	0.0412 mmol/kg/day

same assay, conditions: TD50_Mouse_Note: TD50 is harmonic mean of more than one positive test; TargetSites_Mouse_Female: adrenal gland; liver; vascular system

Compound	Potency
Oc1c(Cl)c(Cl)c(Cl)c(Cl)c1Cl	0.0901 mmol/kg/day

same assay, conditions: TD50_Mouse_Note: TD50 is harmonic mean of more than one positive test; TargetSites_Mouse_Female: all tumor bearing animals

Compound	Potency
OCCN(CCO)CCO	0.67 mmol/kg/day

same assay, conditions: TD50_Mouse_Note: TD50 is harmonic mean of more than one positive test; TargetSites_Mouse_Female: clitoral gland; lung

Compound	Potency
CCCCN(N)C=O	0.166 mmol/kg/day

same assay, conditions: TD50_Mouse_Note: TD50 is harmonic mean of more than one positive test; TargetSites_Mouse_Female: harderian gland; hematopoietic system; liver

Compound	Potency
CN(C)c1ccc(C(=C2C=CC(=[N+](C)C)C=C2)c2ccc(N(C)C)cc2)cc1	0.222 mmol/kg/day

same assay, conditions: TD50_Mouse_Note: TD50 is harmonic mean of more than one positive test; TargetSites_Mouse_Female: harderian gland; liver; lung; ovary

Compound	Potency
C=CC(=O)NCO	0.263 mmol/kg/day

same assay, conditions: TD50_Mouse_Note: TD50 is harmonic mean of more than one positive test; TargetSites_Mouse_Female: hematopoietic system; lung

Compound	Potency
NNC(=O)c1ccccc1	0.0704 mmol/kg/day

same assay, conditions: TD50_Mouse_Note: TD50 is harmonic mean of more than one positive test; TargetSites_Mouse_Female: hematopoietic system; ovary

Compound	Potency
O=C1OC(c2ccc(O)cc2)(c2ccc(O)cc2)c2ccccc21	3.68 mmol/kg/day

same assay, conditions: TD50_Mouse_Note: TD50 is harmonic mean of more than one positive test; TargetSites_Mouse_Female: liver

Compound	Potency
CC(Cl)CCl (configuration not stated)	2.44 mmol/kg/day
Nc1ccccc1N	4.06 mmol/kg/day
c1ccncc1	0.308 mmol/kg/day
O=C1C2(Cl)C3(Cl)C4(Cl)C(Cl)(Cl)C5(Cl)C3(Cl)C1(Cl)C5(Cl)C24Cl (configuration not stated)	0.002 mmol/kg/day
Clc1ccc(Cl)cc1	2.2 mmol/kg/day
CN1CCCC1=O	20.7 mmol/kg/day

same assay, conditions: TD50_Mouse_Note: TD50 is harmonic mean of more than one positive test; TargetSites_Mouse_Female: liver; mammary gland

Compound	Potency
O=[N+]([O-])c1ccccc1	2.4 mmol/kg/day

same assay, conditions: TD50_Mouse_Note: TD50 is harmonic mean of more than one positive test; TargetSites_Mouse_Female: liver; urinary bladder

Compound	Potency
Nc1ccc(-c2ccccc2)cc1	0.0124 mmol/kg/day

same assay, conditions: TD50_Mouse_Note: TD50 is harmonic mean of more than one positive test; TargetSites_Mouse_Female: liver; vascular system

Compound	Potency
Oc1c(Cl)c(Cl)c(Cl)c(Cl)c1Cl	0.0864 mmol/kg/day

same assay, conditions: TD50_Mouse_Note: TD50 is harmonic mean of more than one positive test; TargetSites_Mouse_Female: lung

Compound	Potency
N#[N+]c1ccccc1	0.0712 mmol/kg/day
CC(=O)NN	0.133 mmol/kg/day
O=[O+][O-]	0.0392 mmol/kg/day

same assay, conditions: TD50_Mouse_Note: TD50 is harmonic mean of more than one positive test; TargetSites_Mouse_Female: lung; vascular system

Compound	Potency
CC(=O)NNc1ccc(CO)cc1	1.34 mmol/kg/day

same assay, conditions: TD50_Mouse_Note: TD50 is harmonic mean of more than one positive test; greater than ten-fold variation among TD50 values for positive res; TargetSites_Mouse_Female: liver

Compound	Potency
Cc1nc(N)cc2[nH]c3ccccc3c12	0.049 mmol/kg/day

same assay, conditions: TD50_Mouse_Note: no positive results

Compound	outcome
[Cl-].[Hg+]	inactive; no positive results
N[C@@H](CCC(=O)O)C(=O)O	inactive; no positive results
C=CC(OC(C)=O)c1ccc2c(c1)OCO2 (configuration not stated)	inactive; no positive results

same assay, conditions: TD50_Mouse_Note: no positive results are statistically significant; TargetSites_Mouse_Female: no positive results

Compound	Potency
COc1cc(-c2ccc(N)c(OC)c2)ccc1N	0.233 mmol/kg/day

same assay, conditions: TD50_Mouse_Note: no positive results; TargetSites_Mouse_Female: no positive results

Compound	outcome
CNCCC(Oc1ccc(C(F)(F)F)cc1)c1ccccc1 (configuration not stated)	inactive; no positive results
O=C(O)c1ccccc1	inactive; no positive results
CC(C)OC(=O)COc1ccc(Cl)cc1Cl	inactive; no positive results
NC(=S)Nc1cccc2ccccc12	inactive; no positive results
Cc1cc(N)ccc1N	inactive; no positive results
COc1ccc(C(=O)/C(Br)=C\C(=O)O)cc1	inactive; no positive results
CNC(=O)Oc1cccc2c1OC(C)(C)C2	inactive; no positive results
C=C(C)C(=O)Nc1ccc(Cl)c(Cl)c1	inactive; no positive results
CCCCN(CCCC)C(=S)[S-].CCCCN(CCCC)C(=S)[S-].[Zn+2]	inactive; no positive results
CCN(Cc1cccc(S(=O)(=O)O)c1)c1ccc(C(=C2C=CC(=[N+](CC)Cc3cccc(S(=O)(=O)[O-])c3)C=C2)c2ccc(S(=O)(=O)O)cc2)cc1	inactive; no positive results
O=Nc1ccc(NO)cc1	inactive; no positive results
C=CCc1ccc(O)c(OC)c1	inactive; no positive results
NC(=O)CCCCC(N)=O	inactive; no positive results
Nc1ccc([N+](=O)[O-])cc1O	inactive; no positive results
O=C(O)c1cccnc1	inactive; no positive results
O=C(O)Cc1c[nH]c2ccccc12	inactive; no positive results
COC(=O)C(c1ccccc1)C1CCCCN1N=O (configuration not stated)	inactive; no positive results
CN(C)C(=S)[S][Pb][S]C(=S)N(C)C	inactive; no positive results
CCCCOC(=O)COc1ccc(Cl)cc1Cl	inactive; no positive results
CNC[C@H](O)c1cccc(O)c1	inactive; no positive results
CN(C)c1ccc(N=NS(=O)(=O)O)cc1	inactive; no positive results
